Key:
[1] = cited from earlier work; for solubility (in words): WO 2007/039132, CHMP assessment report EMEA/H/C/000944
[2] = Moisture desorption isotherm / exposure to low relative humidity; assay type: physicochemical; settings: for relative humidity at which the dihydrate converts to an anhydrate form: 25° C., FIG. 7
Protocol: The moisture desorption isotherm were recorded with a SPS-11 moisture sorption analyzer (MD Messtechnik, Ulm, and D). The measurement cycle was performed by a decrease relative humidity (RH) in 10% steps. The equilibrium condition for each step was set to a mass constancy of ±0.001% over 50 min. The temperature was 25° C.±01° C.

[3] = Polymorphic stability of Rivaroxaban dihydrate on storage (infrared spectroscopy); assay type: physicochemical; settings: about 25° C., relative humidity of about 76%, 6 weeks
Protocol: Infrared spectra (IR) were collected on a MKII Golden Gate™ Single Reflection Diamond ATR (attenuated total reflection) cell with a Bruker Tensor 27 FTIR spectrometer with 4 cm-1 resolution at ambient conditions. To collect a spectrum a spatula tip of a sample was applied to the surface of the diamond in powder form. Then the sample was pressed onto the diamond with a sapphire anvil and the spectrum was recorded. A spectrum of the clean diamond was used as background spectrum. A typical precision of the wavenumber values is in the range of about ±2 cm-1. Thus, an infrared peak that appears at 1716 cm-1 can appear between 1714 and 1718 cm-1 on most infrared spectrometers under standard conditions. […]

O=C(NC[C@H]1CN(c2ccc(N3CCOCC3=O)cc2)C(=O)O1)c1ccc(Cl)s1 [amorphous form]
solubility (in words) [1]: higher solubility in comparison to modification I

O=C(NC[C@H]1CN(c2ccc(N3CCOCC3=O)cc2)C(=O)O1)c1ccc(Cl)s1 [Form I of Rivaroxabin, 5-Chloro-N-({(5S)-2-oxo-3-[4-(3-oxomorpholin-4-yl]phenyl)-1,3-oxazolidin-5-yl}methyl)thiophene-2-carboxamide]
solubility (in words) [1]: relatively low solubility

O=C(NC[C@H]1CN(c2ccc(N3CCOCC3=O)cc2)C(=O)O1)c1ccc(Cl)s1 [crystalline dihydrate of Rivaroxaban, Rivaroxaban Dihydrate]
relative humidity at which the dihydrate converts to an anhydrate form [2]: less than 20% | relative humidity at which the dihydrate converts to an anhydrate form ([2]; listed as dihydrate of Rivaroxaban): about 25% | exposure time to low relative humidity sufficient for transformation into anhydrate form ([2]; less than 20% relative humidity): about one | polymorphic stability on storage ([3]; listed as Rivaroxaban Dihydrate): polymorphic stable | polymorphic stability on storage ([3]; listed as crystalline dihydrate): does not convert to other polymorphic forms

O=C(NC[C@H]1CN(c2ccc(N3CCOCC3=O)cc2)C(=O)O1)c1ccc(Cl)s1 [Modification II]
higher solubility compared to modification I ([1]; described in WO 2007/039132): 4 fold

O=C(NC[C@H]1CN(c2ccc(N3CCOCC3=O)cc2)C(=O)O1)c1ccc(Cl)s1.O=CO [formic acid solvate of Rivaroxaban, Rivaroxaban.Formic Acid Solvate]
stability on storage at low relative humidity (less than about 20% relative humidity at 25° C.): stable | behaviour on storage at higher relative humidity (relative humidity of more than 20%, e.g. 30%, 60% or 97%): formic acid is lost and the dihydrate of Rivaroxaban is formed | behaviour on suspending in aqueous medium (suspended in aqueous medium): pure dihydrate of Rivaroxaban is formed

Source: patent US9266868B2, “Crystalline form of rivaroxaban dihydrate” (SANDOZ AG, priority 2010, dated 2016)
